Measured values taken from patent US8546085B2, “Methods of identifying modulators of the bitter taste receptor TAS2R44” (Givaudan SA, priority 2008, dated 2013).
Values belong to the compound of their own block, whether it stands above or below them. Peptide text beside a SMILES is read from it.

Legend:
Assay type in all cases: cell-based
TAS2R44 [1] = molecular target: T1, TAS2R44 (Homo sapiens, UniProt P59538, L162M); assay: Fluo-4 calcium assay, activation of TAS2R44 by agonists; conditions: for EC50: HEK293T cells stably expressing Gα16-gustducin44 and TAS2R44, nonlinear regression, read-out: calculated EC50 value for TAS2R44; for calcium signaling upon addition: cells stably expressing human TAS2R44
T1 construct: The full length gene of human TAS2R44 was amplified by polymerase chain reaction (PCR) using gene-specific primers that span the entire coding region; RSS tag (first 45 amino acids of rat somatostatin receptor subtype 3, plus EcoRI site) (N); expressed in transfected cells; host or cells: HEK293T/Galpha16-gustducin 44 cells, stably transfected with pcDNA3.1Zeo-TAS2R44
T1 sequence (P59538 with tags, fused parts or gaps L162M): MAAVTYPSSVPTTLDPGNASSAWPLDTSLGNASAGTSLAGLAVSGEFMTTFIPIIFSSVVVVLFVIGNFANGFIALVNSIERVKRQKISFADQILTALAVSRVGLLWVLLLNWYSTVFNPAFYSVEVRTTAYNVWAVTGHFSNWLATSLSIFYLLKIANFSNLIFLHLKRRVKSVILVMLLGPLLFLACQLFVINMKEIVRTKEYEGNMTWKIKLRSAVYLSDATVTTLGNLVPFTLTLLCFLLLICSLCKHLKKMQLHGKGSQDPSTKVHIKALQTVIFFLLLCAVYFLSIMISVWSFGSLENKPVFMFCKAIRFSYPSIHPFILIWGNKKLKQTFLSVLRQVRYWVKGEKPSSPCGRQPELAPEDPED
Procedure: Fluo-4AM (Invitrogen, Carlsbad, Calif., US) is a fluorescent indicator of intracellular calcium dynamics (change in concentration) and allows monitoring changes in the calcium concentration, particularly an increase in response to receptor activation occurring after agonist exposure.
At day 0, the HEK293T cell line expressing Gα16-gustducin44 and a TAS2R bitter taste receptor formed as described in examples 2b or 2c was seeded in antibiotic-free growth medium (standard DMEM with 10% (v/v) heat-inactivated fetal bovine serum, 2 mM L-glutamine[…]) into black wall/clear bottom 96-well plates, coated with poly(ethylenimine) (0.005% v/v) at a concentration of 15,000 cells per well and incubated for 48 hours in humidified atmosphere (37° C., 5% CO2).
At the time of the assay, the growth medium was discarded and the cells were in humidified atmosphere (37° C., 5% CO2) for 1 hour with 50 μl of loading buffer consisting of 1.5 μM Fluo-4 AM and […] probenicid (Sigma-Aldrich, St. Louis, Mo., US) in DMEM.
Afterwards, the 96-well plate was washed 5 times with 100 μl of assay buffer (130 mM NaCl, 5 mM KCl, 10 mM HEPES, 2 mM CaCl2, and 5 mM dextrose, pH 7.4) per well, using an automated plate washer (BioTek). The plate was further incubated for 30 minutes at room temperature in the dark to allow for complete de-esterification of the Fluo-4. Afterwards the plate was washed 5 times with 100 μl of assay buffer per well, and reconstituted with 100 μl of assay buffer per well.
For assay reading, the plate was placed in a Fluorometric Imaging Plate Reader (FLIPR) (FLIPR-TETRA™, Molecular Devices, Sunnyvale, Calif., US), and receptor activation was initiated by addition of 100 μl of a twofold concentrated agonist stock solution (to give the desired agonist end concentration when added to the 100 microliter assay buffer volume), which was prepared in assay buffer.
Fluorescence was continuously monitored for 20 seconds to give a signal baseline (averaged to give F0) prior to agonist addition and for 120 seconds after agonist addition. The change in signal divided by F0 gives ΔF/F0 indicated in the table, with ΔF being the maximum signal occurring within the 120 seconds minus the minimum signal (occurring within the 120 seconds after agonist addition.
All data was collected from at least two independent experiments each carried out in triplicate.
A concentration-response analysis was performed and EC50 values were calculated by nonlinear regression using the function f(x)=(a−d)/(1+(x/C)^nh)+d; with a=minimum signal, d=maximum signal, nh=hill coefficient, C=EC50. , and x=agonist concentration. EC50 is the molar concentration of an agonist which produces 50% of the maximum possible effective response for that agonist.
(§1) The obtained calcium signals were corrected for the response of cells expressing only the G Proteinα subunit (Gα16-gustducin44) and normalized to the fluorescence of cells prior to the stimulus using ΔF/F0 (Fmax−Fmin/F0).
To confirm that the cell line formed in example 2c stably expresses the bitter taste receptor TAS2R44, a concentration-response curve for saccharin, a known agonist of TAS2R44, was generated. […] The standard deviation (+/−STD) is also indicated.
The intracellular calcium response following addition of steviol glycosides (stevioside, rebaudioside A) was determined in HEK293T cell line stably expressing Gα16-gustducin44 and TAS2R44 formed as described in example 2a.

[2] = test system: HEK293T Gα16gustducin44 cells (that do not express TAS2R44); assay: Fluo-4 calcium assay, negative control cells without TAS2R44; conditions: for change in signal in the negative control: cells expressing only Gα16-gustducin44
Text: as §1
As a negative control to determine unspecific signals, each of the applied concentrations of each F(I) steviol glycoside was applied to cells expressing only Gα16gustducin44.

TAS2R44 [3] = molecular target: T1, TAS2R44; assay: Fluo-4 calcium assay, antagonists of the response of TAS2R44 to steviol glycosides; conditions: without bitter blocker
Procedure: All cells were HEK293T cells stably expressing Gα16-gustducin44, or expressing Gα16-gustducin44 and TAS2R44.
The method was carried out as described in example 3 subject to the following modifications:
The samples were tested with and without candidate bitter blocker and the signals were compared. The candidate bitter blocker was dissolved in dimethylsulfoxide (DMSO), and a negative control with equivalent DMSO concentration (0.02%) was performed accordingly to exclude a potential inhibitory effect of the solvent. Furthermore, a control with the relevant steviol glycoside and DMSO (0.02%) was performed accordingly (see table in example 5).
All data was calculated as ΔF/F0 and the standard deviation (STD) is indicated in each table, see results for the identified bitter blocker 4-(2,2,3-trimethyl-cyclopentyl)-butanoic acid below.

agonist for TAS2R44 (TAS2R44 [1]; sweeteners with a known bitter off-note): not to be agonists
Compound: COC(=O)[C@H](Cc1ccccc1)NC(=O)[C@@H](N)CC(=O)O [aspartame] (H-Asp-Phe-OMe)

EC50 (TAS2R44 [1]): 0.7 mM
calcium signaling upon addition (TAS2R44 [1]): significant increase
TAS2R44 ΔF/F0 (TAS2R44 [1]; rebaudioside A 0.004 mM): 0.07687
TAS2R44 ΔF/F0 (TAS2R44 [1]; rebaudioside A 0.008 mM): 0.07938
TAS2R44 ΔF/F0 (TAS2R44 [1]; rebaudioside A 0.016 mM): 0.0975
TAS2R44 ΔF/F0 (TAS2R44 [1]; rebaudioside A 0.031 mM): 0.1681
TAS2R44 ΔF/F0 (TAS2R44 [1]; rebaudioside A 0.063 mM): 0.1619
TAS2R44 ΔF/F0 (TAS2R44 [1]; rebaudioside A 0.125 mM): 0.32
TAS2R44 ΔF/F0 (TAS2R44 [1]; rebaudioside A 0.625 mM): 0.7025
TAS2R44 ΔF/F0 (TAS2R44 [1]; rebaudioside A 2.500 mM): 0.7819
TAS2R44 ΔF/F0 (TAS2R44 [1]; rebaudioside A 5.000 mM): 0.6262
rebaudioside positive control average ΔF/F0 (TAS2R44 [3]; 0.7 mM rebaudioside A (EC50) alone): 0.4625
Compound: C=C1C[C@@]23CC[C@H]4[C@@](C)(CCC[C@@]4(C)C(=O)O[C@@H]4O[C@H](CO)[C@@H](O)[C@H](O)[C@H]4O)[C@@H]2CC[C@]1(O[C@@H]1O[C@H](CO)[C@@H](O)[C@H](O[C@@H]2O[C@H](CO)[C@@H](O)[C@H](O)[C@H]2O)[C@H]1O[C@@H]1O[C@H](CO)[C@@H](O)[C@H](O)[C@H]1O)C3 [rebaudioside A]
change in signal in the negative control [2]: No significant change
Neg. Control ΔF/F0 ([2]; rebaudioside A 0.004 mM): 0.061
Neg. Control ΔF/F0 ([2]; rebaudioside A 0.008 mM): 0.0635
Neg. Control ΔF/F0 ([2]; rebaudioside A 0.016 mM): 0.054
Neg. Control ΔF/F0 ([2]; rebaudioside A 0.031 mM): 0.063
Neg. Control ΔF/F0 ([2]; rebaudioside A 0.063 mM): 0.0685
Neg. Control ΔF/F0 ([2]; rebaudioside A 0.125 mM): 0.087
Neg. Control ΔF/F0 ([2]; rebaudioside A 0.625 mM): 0.1115
Neg. Control ΔF/F0 ([2]; rebaudioside A 2.500 mM): 0.153
Neg. Control ΔF/F0 ([2]; rebaudioside A 5.000 mM): 0.208

TAS2R44 ΔF/F0 (TAS2R44 [1]; saccharin 0.0391 mM): 0.024
TAS2R44 ΔF/F0 (TAS2R44 [1]; saccharin 0.0781 mM): 0.075
TAS2R44 ΔF/F0 (TAS2R44 [1]; saccharin 0.1563 mM): 0.181
TAS2R44 ΔF/F0 (TAS2R44 [1]; saccharin 0.3125 mM): 0.388
TAS2R44 ΔF/F0 (TAS2R44 [1]; saccharin 0.6250 mM): 0.668
TAS2R44 ΔF/F0 (TAS2R44 [1]; saccharin 1.2500 mM): 0.947
TAS2R44 ΔF/F0 (TAS2R44 [1]; saccharin 2.5000 mM): 1.150
TAS2R44 ΔF/F0 (TAS2R44 [1]; saccharin 5.0000 mM): 1.258
TAS2R44 ΔF/F0 (TAS2R44 [1]; saccharin 10.0000 mM): 1.354
Compound: O=C1NS(=O)(=O)c2ccccc21 [saccharin]
change in signal in the negative control [2]: did not show any significant change in signal
Neg. Control ΔF/F0 ([2]; saccharin 10.0000 mM): 0.020

EC50 (TAS2R44 [1]): 2.2 mM
calcium signaling upon addition (TAS2R44 [1]): significant increase
TAS2R44 ΔF/F0 (TAS2R44 [1]; stevioside 0.004 mM): 0.082
TAS2R44 ΔF/F0 (TAS2R44 [1]; stevioside 0.008 mM): 0.079
TAS2R44 ΔF/F0 (TAS2R44 [1]; stevioside 0.016 mM): 0.096
TAS2R44 ΔF/F0 (TAS2R44 [1]; stevioside 0.031 mM): 0.112
TAS2R44 ΔF/F0 (TAS2R44 [1]; stevioside 0.063 mM): 0.136
TAS2R44 ΔF/F0 (TAS2R44 [1]; stevioside 0.125 mM): 0.230
TAS2R44 ΔF/F0 (TAS2R44 [1]; stevioside 0.625 mM): 0.451
TAS2R44 ΔF/F0 (TAS2R44 [1]; stevioside 2.500 mM): 0.677
TAS2R44 ΔF/F0 (TAS2R44 [1]; stevioside 5.000 mM): 1.155
stevioside positive control average ΔF/F0 (TAS2R44 [3]; 2.2 mM stevioside (EC50) alone): 0.733
Compound: C=C1C[C@@]23CC[C@H]4[C@@](C)(CCC[C@@]4(C)C(=O)O[C@@H]4O[C@H](CO)[C@@H](O)[C@H](O)[C@H]4O)[C@@H]2CC[C@]1(O[C@@H]1O[C@H](CO)[C@@H](O)[C@H](O)[C@H]1O[C@@H]1O[C@H](CO)[C@@H](O)[C@H](O)[C@H]1O)C3 [stevioside]
change in signal in the negative control [2]: No significant change
Neg. Control ΔF/F0 ([2]; stevioside 0.004 mM): 0.061
Neg. Control ΔF/F0 ([2]; stevioside 0.008 mM): 0.059
Neg. Control ΔF/F0 ([2]; stevioside 0.016 mM): 0.059
Neg. Control ΔF/F0 ([2]; stevioside 0.031 mM): 0.074
Neg. Control ΔF/F0 ([2]; stevioside 0.063 mM): 0.065
Neg. Control ΔF/F0 ([2]; stevioside 0.125 mM): 0.063
Neg. Control ΔF/F0 ([2]; stevioside 0.625 mM): 0.062
Neg. Control ΔF/F0 ([2]; stevioside 2.500 mM): 0.010
Neg. Control ΔF/F0 ([2]; stevioside 5.000 mM): 0.435
